Source: patent publication US20220090096A1 (priority 2019, published 2022)

Key:
[1] = system: Clostridium spp.; settings: cited from earlier work
[2] = system: Pfdx-rbG-botR-T1-Pntnh-catP construct integrated in the pyrE locus; assay type: cell-based, C. botulinum ATCC 19397 ΔClA

For `Cc1c2c(c(O)c3c(O)cccc13)C(=O)[C@]1(O)C(=O)C(C(N)=O)=C(O)[C@@H](N(C)C)[C@@H]1C2` [anhydrotetracycline], which “effect on cell growth” value [1] is on record?
Its value is “significant inhibitory effects on cell growth”.

For `Cn1c(=O)c2[nH]cnc2n(C)c1=O` [theophylline], which “CAT expression upon induction relative to absence of theophylline” value [2] is on record?
The value was “approximately 7 fold”.
